US20140350119A1, “OPHTHALMIC COMPOSITION COMPRISING GERANYLGERANYLACETONE” (ROHTO PHARMACEUTICAL CO., LTD., priority 2012, published 2014)

Assays:
[1] = tested on: rat-derived retinal ganglion cells (RGC); assay: Neurite outgrowth inducing effect in culture system of rat-derived retinal ganglion cells; assay type: cell-based, Wistar rats; details: all-trans form content 3 μM; 48 hours; FIG. 2, FIG. 3; n=4
From the text: The progress of visual impairment in glaucoma is associated with retinal ganglion cell (RGC) death due to blood flow failure occurring near the optic nerve (Folia Pharmacol. Jpn. 128, 255-258 (2006)). Accordingly, a culture system of rat-derived retinal neurons (Current protocols in Neuroscience 3.22.1-3.22.10, October 2010), which is widely used as one of study tools for optic nerve diseases such as a glaucoma, was used to examine the neurite outgrowth inducing effect of GGA.
Four-day-old Wistar rats (Japan SLC, Inc.) were euthanized by cervical dislocation and the eyeballs were harvested. The harvested eyeballs were immersed in 70% ethanol for 10 seconds and transferred to a Hanks' balanced salt solution containing 100 U/mL penicillin and 100 μg/mL streptomycin. Under a stereoscopic microscope, the corneas, irises, crystalline lenses, and vitreous bodies were removed using scissors for surgery and forceps, and the retinal tissue was harvested. The harvested retinal tissue was transferred to a centrifugation tube containing 5 mL of a basal medium for neuronal cells (Neurobasal, Invitrogen) containing 100 U/mL penicillin, 100 μg/mL streptomycin, a neural cell culture supplement (B27™-Supplement, Invitrogen), 1 μM L-cysteine (Kyowa Hakko Bio) and 15 U/mL papain (Sigma Aldrich) and incubated at 37° C. for 30 minutes. […]

[2] = tested on: rat models with glaucoma induced by NMDA; assay: Protective effect for retinal ganglion cells against nerve damage by NMDA (thickness of inner plexiform layer); assay type: in vivo, Sprague-Dawley (SD) rats
From the text: In recent years the glutamate analogue NMDA (N-methyl-D-aspartate) has been widely reported to be one of causative agents of neurodegenerative diseases including Alzheimer's disease. In the ophthalmic field, NMDA is considered to be involved in optic nerve damage in glaucoma (Brain Research Bulletin, 81 (2010) 349-358). Accordingly, in this experiment rat models with glaucoma induced by NMDA were used to evaluate the neuroprotective effect of GGA.
To Sprague-Dawley (SD) rats, the all-trans form, the 5Z-mono-cis form and teprenone were separately pre-administered by oral administration (Test Example 1), intravitreal administration (Test Example 2) or ocular instillation administration (Test Example 3) and 5 μL of NMDA was administered into the vitreous body to induce nerve damage. For Test Example 2, a marketed therapeutic eye drop for glaucoma, AIPHAGAN (trade name), was intravitreally administered as a positive control once a day for five days. For each of Test Examples, a base not containing GGA or AIPHAGAN was administered as a control in the same manner as described above.
The dosage and regimen of Test Examples 1 to 3 are shown in Table 1 and the constitution of the base used in each tests are shown in Table 2.
Three days after administration of NMDA, the eyeballs were harvested, fixed with half Karnovsky's fixative for 24 hours, embedded in paraffin, thin sectioned and stained with hematoxylin-eosin (HE) to prepare histopathological sections. The histological sections were observed under an optical microscope and the thickness (μm) of the inner plexiform layer (IPL) of the retina was measured. From the thickness of the inner plexiform layer (IPL) of the retina, the neuroprotective effects of the test preparations were evaluated.

For `CC(=O)CC/C=C(\C)CC/C=C(\C)CC/C=C(\C)CCC=C(C)C` [all-trans form, (5E,9E,13E)-6,10,14,18-tetramethyl-5,9,13,17-nonadecatetrae n-2-one], the “Neurite inducing effect (mean length of neurites of RGC) compared with GGA 6:4 and base” value [1] was “significant neurite inducing effect”, the “Neuroprotective effect against nerve damage by NMDA compared with the base (IPL thickness)” value ([2]; Test Example 1: oral, 800 mg/kg, 2 days, once per day, NMDA 4 mM, FIG. 6) was “significant neuroprotective effects” and the “Neuroprotective effect against nerve damage by NMDA compared with the base (IPL thickness)” value ([2]; Test Example 2: intravitreal, 0.05% w/v, 5 days, once per day, NMDA 40 mM, FIG. 7) was “significant neuroprotective effects”. For the same compound, the “Neuroprotective effect compared with AIPHAGAN Ophthalmic Solution 0.1%” value ([2]; Test Example 2: intravitreal, 0.05% w/v, 5 days, NMDA 40 mM, FIG. 7) was “significantly superior neuroprotective effect” and the “Neuroprotective effect against nerve damage by NMDA compared with the base (IPL thickness)” value ([2]; Test Example 3: ocular instillation, 1% w/v, 5 days, 5 times per day, NMDA 4 mM, FIG. 9) was “significant neuroprotective effect”.
